Source: patent US9040259B2, “Production of polyketides and other natural products” (Buck Institute for Research on Aging, priority 2002, dated 2015)
Like-named read-outs stand apart in the source and are kept apart here.

Key:
[1] = compared to rapamycin; Khaw et al., 1998; cited from earlier work
[2] = compared to rapamycin; Wong et al., 1998; cited from earlier work
HT29 (colon) = assay: MTT growth inhibition assay, HT29 (colon) tumour cell line; assay type: cell-based, human; details: for IC50: concentration giving 50% of maximum inhibition, read-out: IC50 (row head: HT29 rIC50)
Procedure: (§1) Growth inhibition of adherent human tumour cell lines of solid malignancies HT29 (colon) and MCF-7 (breast) was tested in vitro using an MTT (3-(4,5-dimethylthiazol-2-yl)-2,5-diphenyltetrazolium bromide) assay using micro-titre plates (Sieuwerts, A. M., et al., 1995). All cell lines were obtained from either the ATCC (American Type Culture Collection) or ECACC (European Collection of Cell Cultures). All cell lines were grown from frozen stocks and passaged at least once prior to use in RPMI 1640. Cells were harvested from sub-confluent cultures using minimal trypsinization. Cells were diluted to the appropriate density for each cell line (dependent on cell doubling time) in RPMI 1640, and seeded in 60 wells of a 96 well plate in a volume of 100 μl per well (i.e. outside wells of the plate were not used). Plates were incubated at 37° C. overnight. Following this incubation, log scale dilutions of reference and test substances were added in 100 μl per well, 6 replicates were used to test all test compounds, reference compounds and medium controls. Plates were incubated for a further 72 h prior to analysis. MTT (5 mg/ml) was added to each well and plates were re-incubated for 3-4 h. Unreacted MTT was removed from the wells and formazan crystals formed from the MTT were dissolved in DMSO and characteristic absorbance read at 570 nm.

MCF-7 (breast) = assay: MTT growth inhibition assay, MCF-7 (breast) tumour cell line; assay type: cell-based, human; details: MCF-7 cell line, 72 h; for IC50: concentration giving 50% of maximum inhibition, read-out: IC50 (row head: MCF-7 rIC50)
Procedure: as §1

[3] = test system: splenic lymphocytes isolated from C57BL/6 mice; assay: Mixed lymphocyte reaction (MLR), [3H] thymidine incorporation; assay type: cell-based; details: IC50 quoted as a ratio of the rapamycin IC50; 72 h, 37° C.
Procedure: Originally developed to assess tissue compatibility prior to allografts, MLR offers an established model for immune reaction in vitro (SOULILLOU, J. P., et al. (1975); T. Meo. “Immunological Methods”, L. Lefkovits and B. Pernis, Eds., Academic Press, N.Y. pp. 227-239 (1979). MLR was performed by mixing splenic lymphocytes isolated from C57BL/6 mice (5×10^5 cells) with inhibited splenic lymphocytes from CBA mice (2.5×10^5 cells). The inhibited CBA lymphocytes induced a proliferative response in C57BU6 lymphocytes and this was determined by [^3H] thymidine incorporation into DNA as a measure of proliferation of splenic lymphocytes isolated from C57BU6 mice. The anti-proliferative effect was assayed for in the presence of log scale dilutions of reference compounds, test compounds and media controls over a 72 h period at 37° C. The concentration of each test compound and reference compound, which inhibited lymphocyte proliferation by 50% (IC50), compared to control proliferation, was calculated for each cell line and quoted as a ratio of the concentration of rapamycin required to inhibit lymphocyte proliferation by 50% (rIC50), see Table XIV.

[4] = test system: Candida albicans DSM 1386; assay: Anti-fungal assay, NCCLS M27-A microtitre broth dilution; assay type: cell-based; details: MIC as a ratio of the rapamycin MIC; 37° C., 24 h
Procedure: (§2) The comparative anti-fungal activities of reference and test compounds were determined against pathogenic fungi Candida albicans DSM 5816, Candida albicans DSM 1386 and Candida glabrata DSM 11226. This was achieved using a microtitre plate adaption of the NCCLS Reference Method for Broth Dilution Antifungal Susceptibility Testing for Yeasts: Approved Standard (M27-A, vol. 17 No. 9. (1997)). Yeast strains were inoculated (10^4 cfu/ml) to RPMI 1640 media containing […] MOPS, pH 7. Growth was determined in the presence of log scale dilutions of reference compounds, test compounds and media controls after incubation with shaking at 37° C., 24 h. Minimum inhibitory concentration (MIC) and minimum fungicidal activity (MFC) were determined for test compounds and expressed as a ratio of the rapamycin minimum inhibitory concentration (rMIC respectively), see Table XV.

[5] = test system: Candida albicans DSM 5816; assay: as above; assay type: cell-based; details: MIC as a ratio of the rapamycin MIC; 37° C., 24 h
Procedure: as §2

[6] = test system: Candida glabrata DSM 11226; assay: as above; assay type: cell-based; details: MIC as a ratio of the rapamycin MIC; 37° C., 24 h
Procedure: as §2

[7] = test system: mixed lymphocyte reaction; details: Nishida et al., 1995; cited from earlier work
[8] = compared to rapamycin; Box et al., 1995; cited from earlier work
FKBP12 = FKBP12 (Homo sapiens, UniProt P62942); details: compared to rapamycin; Box et al., 1995; cited from earlier work
murine splenic T cells = details: compared to rapamycin; Box et al., 1995; cited from earlier work
murine splenic B cells = details: compared to rapamycin; Box et al., 1995; cited from earlier work

Chain of FKBP12 (P62942 whole entry): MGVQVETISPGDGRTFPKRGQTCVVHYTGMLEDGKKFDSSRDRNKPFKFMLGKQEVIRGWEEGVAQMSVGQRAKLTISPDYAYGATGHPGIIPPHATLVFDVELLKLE

| Molecule | Im (maximum percentage of inhibition observed) (HT29 (colon); 72 h) | IC50 (HT29 (colon); 72 h) | Im (maximum percentage of inhibition observed) (MCF-7 (breast)) | IC50 (MCF-7 (breast)) | MLR rIC50 [3] | C. albicans DSM 1386 rMIC [4] | C. albicans DSM 5816 rMIC [5] | C. glabrata DSM 11226 rMIC [6] | other results |
| --- | --- | --- | --- | --- | --- | --- | --- | --- | --- |
| 4-hydroxyprolyl-26-desmethoxy-rapamycin | – | – | – | – | – | – | – | – | inhibitory activity in proliferation assays [1]: significantly less than that of rapamycin |
| 27-desmethoxy-rapamycin [Compound 22] | – | – | – | – | – | – | – | – | antifungal activities [2]: lower than that of rapamycin |
| CC1=CC(C)C(=O)CC(C(C)CC2CCC(O)C(O)C2)OC(=O)C2CCCCN2C(=O)CC2(O)OC(CCC2C)CC(O)C(C)=CC=CC=CC(C)CC(C)C(=O)CC1O (stereo not shown) [Compound 1, 9-deoxo-16-O-desmethyl-27-desmethoxy-39-O-desmethyl-rapamycin] | 38% | 50.1 nM | 38% | 3.2 nM | 9.4 | 5 | 1 | 5 | – |
| CC1=CC(C)C(=O)CC(C(C)CC2CCC(O)C(O)C2)OC(=O)C2CCCCN2C(=O)C(=O)C2(O)OC(CCC2C)CC(O)C(C)=CC=CC=CC(C)CC(C)C(=O)CC1O (stereo not shown) [Compound 3, 16-O-desmethyl-27-desmethoxy-39-O-desmethyl-rapamycin] | 37% | 63.1 nM | 38% | 20 nM | 7.9 | 1 | 1 | 1 | – |
| CO[C@@H]1C[C@H](C[C@@H](C)[C@@H]2CC(=O)[C@H](C)/C=C(\C)[C@@H](O)CC(=O)[C@H](C)C[C@H](C)/C=C/C=C/C=C(\C)[C@@H](O)C[C@@H]3CC[C@@H](C)[C@](O)(CC(=O)N4CCCC[C@H]4C(=O)O2)O3)CC[C@H]1O [Compound 6, 9-deoxo-16-O-desmethyl-27-desmethoxy-rapamycin] | 38% | 25 nM | 48% | 126 nM | 8.8 | 5 | 1 | 5 | – |
| CO[C@H]1C[C@@H]2CC[C@@H](C)[C@](O)(CC(=O)N3CCCC[C@H]3C(=O)O[C@H]([C@H](C)C[C@@H]3CC[C@@H](O)[C@H](O)C3)CC(=O)[C@H](C)/C=C(\C)[C@@H](O)[C@@H](O)C(=O)[C@H](C)C[C@H](C)/C=C/C=C/C=C/1C)O2 [Compound 8, 9-deoxo-27-O-desmethyl-39-O-desmethyl-rapamycin] | 30% | 63 nM | 38% | 20 nM | 4.1 | 1 | 1 | 1 | – |
| CO[C@@H]1C[C@H](C[C@@H](C)[C@@H]2CC(=O)[C@H](C)/C=C(\C)[C@@H](O)[C@@H](O)C(=O)[C@H](C)C[C@H](C)/C=C/C=C/C=C(\C)[C@@H](O)C[C@@H]3CC[C@@H](C)[C@](O)(CC(=O)N4CCCC[C@H]4C(=O)O2)O3)CC[C@H]1O [Compound 9, 9-deoxo-16-O-desmethyl-27-O-desmethyl-rapamycin] | 35% | 12.6 nM | 40% | 17.8 nM | 6.5 | 1 | 1 | 1 | – |
| COC1CC2CCC(C)C(O)(CC(=O)N3CCCCC3C(=O)OC(C(C)CC3CCC(O)C(OC)C3)CC(=O)C(C)C=C(C)C(O)CC(=O)C(C)CC(C)C=CC=CC=C1C)O2 (stereo not shown) [Compound 16, 9-deoxo-27-desmethoxy-rapamycin] | 25% | 15.8 nM | 32% | 2 nM | >14.7 | 5 | 1 | 5 | – |
| CO[C@H]1C[C@@H]2CC[C@@H](C)[C@](O)(CC(=O)N3CCCC[C@H]3C(=O)O[C@H]([C@H](C)C[C@@H]3CC[C@@H](O)[C@H](OC)C3)CC(=O)[C@H](C)/C=C(\C)[C@@H](O)[C@@H](OC)C(=O)[C@H](C)C[C@H](C)/C=C/C=C/C=C/1C)O2 [Compound 19, 9-deoxo-rapamycin] | – | – | – | – | – | – | – | – | mixed lymphocyte reaction (MLR) inhibitory activity [7]: more significant decrease in activity |
| CO[C@H]1C[C@@H]2CC[C@@H](C)[C@@](O)(O2)C(=O)C(=O)N2CCCC[C@H]2C(=O)O[C@H]([C@H](C)C[C@@H]2CC[C@@H](O)[C@H](OC)C2)CC(=O)[C@H](C)/C=C(\C)[C@@H](O)[C@@H](O)C(=O)[C@H](C)C[C@H](C)/C=C/C=C/C=C/1C [Compound 21, 27-O-desmethyl-rapamycin] | – | – | – | – | – | – | – | – | antifungal activity [8]: lower than that of rapamycin; inhibition of FKBP12 PPlase activity (FKBP12): seemed to be increased; inhibition of ConA-stimulated proliferation of murine splenic T cells (murine splenic T cells): decreased when compared to rapamycin; inhibition of LPS-stimulated proliferation of murine splenic B cells (murine splenic B cells): decreased when compared to rapamycin; antifungal activities [2]: lower than that of rapamycin |
| COC1CC2CCC(C)C(O)(O2)C(=O)C(=O)N2CCCC2C(=O)OC(C(C)CC2CCC(O)C(OC)C2)CC(=O)C(C)/C=C(\C)C(O)C(OC)C(=O)C(C)CC(C)/C=C/C=C/C=C/1C (stereo not shown) [prolylrapamycin, reference compound] | – | – | – | – | – | – | – | – | antifungal activities [2]: lower than that of rapamycin |
| CO[C@H]1C[C@@H]2CC[C@@H](C)[C@@](O)(O2)C(=O)C(=O)N2CCCC[C@H]2C(=O)O[C@H]([C@H](C)C[C@@H]2CC[C@@H](O)[C@H](OC)C2)CC(=O)[C@H](C)/C=C(\C)[C@@H](O)[C@@H](OC)C(=O)[C@H](C)C[C@H](C)/C=C/C=C/C=C/1C [rapamycin, reference compound] | 40% | – | 56% | – | – | – | – | – | IC50 (HT29 (colon); Homo sapiens, HT-29, 72 h): 200 nM; IC50 (MCF-7 (breast); Homo sapiens, MCF7): 0.03 nM |
